According to patent US7049445B2, “Bicyclic compounds” (Asahi Kasei Pharma Corporation, priority 2000, dated 2006):
Structures can show the parent of a compound that is named as a salt.

Legend:
male ddy mice = assay: Toxicity test; assay type: in vivo; details: orally administered to 6-week old male ddy mice at 100 mg/kg
human β3 = target: T1, human β3 (Homo sapiens, UniProt P13945); assay: Human β3-agonist activities (cAMP in transfected CHO cells); assay type: cell-based; details: CHO cells transfected with human β3 gene; for EC50: cAMP quantitated by EIA after 30 minutes; for Emax: read-out: Intrinsic activity* (relative activities as compared with isoproterenol)
T1 construct: used as a probe to obtain the full length human β3 gene from a human genomic library; expressed in transfected cells; host or cells: CHO (Chinese hamster ovary) cells, pcDNA3 vector
T1 sequence (P13945 whole entry): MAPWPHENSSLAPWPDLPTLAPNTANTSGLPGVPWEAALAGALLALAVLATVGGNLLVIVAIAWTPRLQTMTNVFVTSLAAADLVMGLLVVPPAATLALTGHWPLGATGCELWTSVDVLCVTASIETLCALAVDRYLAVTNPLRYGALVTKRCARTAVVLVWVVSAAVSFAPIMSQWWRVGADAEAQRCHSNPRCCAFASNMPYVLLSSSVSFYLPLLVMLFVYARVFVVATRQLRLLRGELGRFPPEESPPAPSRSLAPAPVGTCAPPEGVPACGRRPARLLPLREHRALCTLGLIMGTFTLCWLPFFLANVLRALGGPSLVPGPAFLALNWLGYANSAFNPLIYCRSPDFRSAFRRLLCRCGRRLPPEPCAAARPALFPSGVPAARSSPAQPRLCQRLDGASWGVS
Experimental: Human β3-agonist activities were determined using CHO (Chinese hamster ovary) cells transfected with pcDNA3 (mfd. by Invitrogen) to which human β3 gene had been inserted. Human β3 fragment was first obtained from human adipose tissue cDNA (mfd. by Clonetech) by PCR using the primer of β3 (Krief, et al., J. Clin. Invest., vol. 91, pp. 344-349 (1993)). The human β3 fragment thus obtained was used as a probe to obtain the full length human β3 gene from a human genomic library (mfd. by Clonetech). The above cells were cultured in a Ham F-12 medium supplemented with 10% fetal bovine serum, 400 μg/mL geneticin (Gibco BRL), 100 U/mL penicillin and 100 μg/mL streptomycin. After placing these cells (5×10^5) into a 6-well plate and culturing them for 24 hours, they were allowed to stand on a serum-free Ham F-12 medium for 2 hours. The compound was first dissolved in DMSO, diluted to a concentration of 10^−6 M with Ham F-12 supplemented with 1 mM isobutylmethylxanthine and 1 mM ascorbic acid, and then added to the cells. After the cells were cultured for 30 minutes, the medium was removed, followed by addition of 0.5 mL of 1 N NaOH. The medium was allowed to stand for 20 minutes and then 0.5 mL of 1 N acetic acid was added to the medium. The medium was stirred and centrifuged, followed by quantitating cAMP with cAMP EIA kit (mfd. by Cayman). With respect to eight compounds among the compounds described in Examples, their relative activities (%) as compared with isoproterenol were indicated in Table 3. Isoproterenol was purchased from RBI (Research Biochemicals International). The results from Table 3 indicate that the compounds of the present invention have human β3-agonist activities.

[1] = tested on: transgenic mouse expressing human β3; assay: Thermogenesis in transgenic mouse expressing human β3; assay type: in vivo; details: orally administered to transgenic mice, 3 to 10 mg/kg
Text: Ito, et al. prepared a replacement mouse expressing human β3 in its brown fat by introducing human β3 gene into a mouse whose mouse β3 gene had been knocked out (Ito, et al., Diabetes, vol. 47, pp. 1464-1471 (1998)). A compound of the present invention can be tested for antiobestic activity and antidiabetic activity using a transgenic mouse according to the following procedures.
The thermogenesis can be measured with OXYMAX System (Columbus) according to the method reported by Largis et al. (Drug Development Research, vol. 32, pp. 69-76 (1994)). According to this device, the amount of thermogenesis can be obtained by calculating the calories based on the amount of oxygen consumed and the amount of carbon dioxide generated. After the administration of a medicinal substance, the measurements are carried out for 120 minutes (15 points). The average of the measured values obtained for the latter […] (10 points) is converted into a value per body weight to give the amount of thermogenesis. When a test by repetitive administrations is carried out, a medicinal substance may be administered at a dose once daily, twice daily or the like. The duration of administration may be 1 week, 2 weeks or more. In a test by repetitive administrations, body weight, blood glucose level and insulin level can be monitored with the passage of time as the method of Largis et al. (Drug Development Research, vol. 32, pp. 69-76 (1994). It is also possible that after the completion of the administration, the animal is anatomized to measure the weight of fat tissue or to prepare a section followed by a microscopic examination. Further, the expression level of UCP-1 can be examined according to the method reported by Nagase et al. (J. Clin. Invest., vol. 97, pp. 2898-2904 (1996)).
The present compounds were orally administered to transgenic mice in an amount of from 3 to 10 mg/kg to measure their thermogenesis.

[2] = cAMP, relative to isoproterenol

| Structure (SMILES) | EC50 (human β3) | Emax (human β3; [2]) | Mortality (male ddy mice) | Intrinsic activity* (relative activities as compared with isoproterenol) (human β3; [2]) | Increase of thermogenesis as compared with the control group [1] |
| --- | --- | --- | --- | --- | --- |
| Cc1[nH]c2cc(OCCNCC(O)c3cccc(NS(C)(=O)=O)c3)ccc2c1C.O=C(O)C(F)(F)F (stereo not shown) [Example 3, N-[3-[2-[2-(2,3-dimethyl-1H-indol-6-yloxy)ethylamino]-1-hydroxyethyl]phenyl]methanesulfonamide trifluoroacetate] | 8.7 nM | 100% | none of eight animals were found to be dead |  |  |
| Cc1[nH]c2cc(OCCNCC(O)c3ccc(Cl)c(NS(C)(=O)=O)c3)ccc2c1C (stereo not shown) [Example 4, N-[5-[2-[2-(2,3-dimethyl-1H-indol-6-yloxy)ethylamino]-1-hydroxyethyl]-2-chlorophenyl]methanesulfonamide trifluoroacetate] | 10 nM | 73% |  |  |  |
| CNS(=O)(=O)c1cc(C(O)CNCCOc2ccc3c(C)c(C)[nH]c3c2)ccc1O.O=C(O)C(F)(F)F (stereo not shown) [Example 9, N-methyl-[5-[2-[2-(2,3-dimethyl-1H-indol-6-yloxy)ethylamino]-1-hydroxyethyl]-2-hydroxy]benzenesulfonamide trifluoroacetate] | 16 nM |  | none of eight animals were found to be dead | 62% |  |
| Cc1[nH]c2cc(OCCNC[C@H](O)c3ccc(Cl)c(NS(C)(=O)=O)c3)ccc2c1C.Cl [Example 10, (R)-N-[5-[2-[2-(2,3-dimethyl-1H-indol-6-yloxy)ethylamino]-1-hydroxyethyl]-2-chlorophenyl]methanesulfonamide hydrochloride] | 4.5 nM | 78% | none of eight animals were found to be dead |  | 15% |
| Cc1[nH]c2cc(OCCNC[C@H](O)c3cccc(NS(C)(=O)=O)c3)ccc2c1C.Cl [Example 11, (R)-N-[3-[2-[2-(2,3-dimethyl-1H-indol-6-yloxy)ethylamino]-1-hydroxyethyl]phenyl]methanesulfonamide hydrochloride] | 4.8 nM | 80% |  |  | 17% |

Now from value to compound, other results behind:

| EC50 (human β3) | Emax (human β3; [2]) | Structure (SMILES) | Mortality (male ddy mice) | Intrinsic activity* (relative activities as compared with isoproterenol) (human β3; [2]) | Increase of thermogenesis as compared with the control group [1] |
| --- | --- | --- | --- | --- | --- |
| 5.3 nM | 71% | CNS(=O)(=O)c1cc([C@@H](O)CNCCOc2ccc3c(C)c(C)[nH]c3c2)ccc1O [Example 12, N-methyl-(R)-[5-[2-[2-(2,3-dimethyl-1H-indol-6-yloxy)ethylamino]-1-hydroxyethyl]-2-hydroxy]benzenesulfonamide hydrochloride] |  |  |  |
| 14 nM | 96% | Cc1c(-c2ccccc2)[nH]c2cc(OCCNC[C@H](O)c3cccc(NS(C)(=O)=O)c3)ccc12.Cl [Example 13, (R)-N-[3-[2-[2-(3-methyl-2-phenyl-1H-indol-6-yloxy)ethylamino]-1-hydroxyethyl]phenyl]methanesulfonamide hydrochloride] |  |  | 15% |
| 4.4 nM | 94% | Cc1c(-c2ccccc2)[nH]c2cc(OCCNC[C@H](O)c3ccc(Cl)c(NS(C)(=O)=O)c3)ccc12 [Example 17, (R)-N-[5-[2-[2-(3-methyl-2-phenyl-1H-indol-6-yloxy)ethylamino]-1-hydroxyethyl]-2-chlorophenyl]methanesulfonamide hydrochloride] |  |  |  |
